In PubChem BioAssay (NCI):
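Five concentrations, 48 hours, 96-well plates. GI50 marks 50% less growth. TGI marks complete inhibition of growth.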

Experiments:
Assay in all cases: NCI-60 cell line screen, 48 h
[1] = system: SN12C renal
[2] = system: UACC-257 melanoma
[3] = system: MDA-MB-435
[4] = system: NCI-H226 lung
[5] = system: SK-MEL-28 melanoma
[6] = system: MCF7 breast
[7] = system: KM12 colon
[8] = system: OVCAR-8 ovarian
[9] = system: ACHN renal
[10] = system: EKVX NSCLC

`O=C(N/N=C/c1ccc(O)cc1)NNCCO` gave a TGI [1] greater than 100 µM, a TGI [2] greater than 100 µM and a TGI [3] greater than 100 µM. It also gave a TGI [4] greater than 100 µM, a TGI [5] greater than 100 µM and a TGI [6] greater than 100 µM. The TGI [7] was greater than 100 µM and the TGI [8] was greater than 100 µM.
`CC(C)C(N=C1CC2CCC1(C(=O)Nc1ccccc1O)C2(C)C)c1ccccc1` (configuration not stated) gave a TGI [9] greater than 10 µM, a TGI [1] greater than 10 µM and a TGI [2] greater than 10 µM. It also gave a TGI [10] greater than 10 µM, a TGI [4] greater than 10 µM and a TGI [5] greater than 10 µM. The TGI [7] was greater than 10 µM and the TGI [8] was greater than 10 µM.
Work on `N#Cc1cc([N+](=O)[O-])ccc1NC(=O)C(=O)Nn1c(=S)[nH]c2ccccc2c1=O` yielded a TGI [1] greater than 100 µM, a TGI [2] greater than 100 µM and a TGI [10] greater than 100 µM. It also gave a TGI [4] greater than 100 µM, a TGI [5] greater than 100 µM and a TGI [7] greater than 100 µM. It also gave a TGI [8] greater than 100 µM.
For `Cn1c(SCc2ccc([N+](=O)[O-])cc2)nnc1C12CC3CC(CC(C3)C1)C2`, the TGI [9] was greater than 10 µM, the TGI [1] was greater than 10 µM and the TGI [10] was greater than 10 µM. It also gave a TGI [3] greater than 10 µM, a TGI [4] greater than 10 µM and a TGI [5] greater than 10 µM. For the same compound, the TGI [6] was greater than 10 µM, the TGI [7] was greater than 10 µM and the TGI [8] was greater than 10 µM.
`Cn1cnc([N+](=O)[O-])c1Sc1nnc(-c2ccc(Cl)cc2)n1C` showed a TGI [9] of 29.3 µM, a TGI [1] of 28.4 µM and a TGI [2] of 25.5 µM. The TGI [10] was 20.4 µM, the TGI [4] was 65.9 µM and the TGI [5] was 27.4 µM. The TGI [7] was 49.9 µM and the TGI [8] was 46 µM.
Work on `O=C1/C(=C/Cc2ccco2)N=C(c2ccccc2)N1c1nc2ccc(Sc3ccccc3)cc2[nH]1` yielded a TGI [9] of 44.9 µM, a TGI [1] of 34.9 µM and a TGI [2] of 57.5 µM. It also gave a TGI [10] greater than 100 µM, a TGI [3] of 23.5 µM and a TGI [5] of 85 µM. It also gave a TGI [6] of 49.2 µM, a TGI [7] of 45.5 µM and a TGI [8] of 62.6 µM.
`COC(=O)C12CCC(CC1=O)C2(C)C` (configuration not stated) showed a TGI [9] greater than 100 µM, a TGI [1] greater than 100 µM and a TGI [2] greater than 100 µM. It also gave a TGI [10] greater than 100 µM, a TGI [4] greater than 100 µM and a TGI [5] greater than 100 µM. It also gave a TGI [8] greater than 100 µM.
`O=C(C#Cc1ccccc1)Nc1ccccc1CC(c1c[nH]c2ccccc12)c1c[nH]c2ccccc12` gave a TGI [1] of 30 µM, a TGI [2] greater than 100 µM and a TGI [10] of 86.1 µM. The TGI [4] was 35.2 µM, the TGI [5] was 32.4 µM and the TGI [7] was 44.4 µM. It also gave a TGI [8] of 39.7 µM.
With `O=C(NNC(=O)c1ccccc1O)c1cccs1` the TGI [1] was greater than 100 µM, the TGI [2] was greater than 100 µM and the TGI [10] was greater than 100 µM. It also gave a TGI [3] greater than 100 µM, a TGI [4] greater than 100 µM and a TGI [5] greater than 100 µM. For the same compound, the TGI [6] was greater than 100 µM, the TGI [7] was greater than 100 µM and the TGI [8] was greater than 100 µM.
Compound `CCCN1CCN(c2ccc3nc(-c4ccc5nc(-c6ccc(OCC)cc6)[nH]c5c4)[nH]c3c2)CC1` has a GI50 [9] of 1.15 µM, a TGI [9] of 2.4 µM and a GI50 [1] greater than 100 µM. The TGI [1] was greater than 100 µM, the GI50 [4] was 10.1 µM and the TGI [4] was 32.9 µM.
`O=C1C2Cc3ccccc3CN2C(=O)N1CN1CCCCC1` (configuration not stated) was tested, and the TGI [9] was greater than 100 µM, the TGI [1] was greater than 100 µM and the TGI [4] was greater than 100 µM. It also gave a TGI [5] greater than 100 µM, a TGI [7] greater than 100 µM and a TGI [8] greater than 100 µM.
`COc1ccc2nc3c(nc2c1)C(C)(C)C=C3c1ccc(Br)cc1` was tested, and the TGI [9] was greater than 100 µM, the TGI [1] was greater than 100 µM and the TGI [2] was greater than 100 µM. It also gave a TGI [10] greater than 100 µM, a TGI [3] greater than 100 µM and a TGI [4] greater than 100 µM. The TGI [6] was greater than 100 µM, the TGI [7] was greater than 100 µM and the TGI [8] was greater than 100 µM.
`CCOC(=O)C1=C(C)NC(c2ccccc2)=C(C(=O)OCc2ccccc2)C1C#Cc1ccccc1` (configuration not stated) gave a TGI [1] greater than 100 µM, a TGI [2] greater than 100 µM and a TGI [10] greater than 100 µM. The TGI [3] was greater than 100 µM, the TGI [4] was greater than 100 µM and the TGI [6] was greater than 100 µM. For the same compound, the TGI [7] was greater than 100 µM and the TGI [8] was greater than 100 µM.
`CCOP(=O)(OCC)C(Cc1cn(S(=O)(=O)c2ccc(C)cc2)cn1)C(=O)O` (configuration not stated) gave a TGI [9] greater than 100 µM, a TGI [1] greater than 100 µM and a TGI [10] greater than 100 µM. The TGI [3] was greater than 100 µM, the TGI [4] was greater than 100 µM and the TGI [5] was greater than 100 µM. It also gave a TGI [6] greater than 100 µM, a TGI [7] greater than 100 µM and a TGI [8] greater than 100 µM.
`Nc1nc(Cl)cc(OCC2(CO)CCCCC2)n1` showed a TGI [9] greater than 100 µM, a TGI [1] greater than 100 µM and a TGI [2] greater than 100 µM. It also gave a TGI [10] greater than 100 µM, a TGI [3] greater than 100 µM and a TGI [4] greater than 100 µM. The TGI [5] was greater than 100 µM, the TGI [6] was greater than 100 µM and the TGI [8] was greater than 100 µM.
In the case of `CC(=O)O[C@H]1C(=O)[C@@]2(C)C(C(OC(=O)c3ccccc3)[C@]3(O)CC(OC(=O)C(O)C(NC(=O)c4cccc(Cl)c4)c4ccccc4)C(C)=C1C3(C)C)[C@]1(OC(C)=O)CO[C@@H]1C[C@@H]2O` (some centres not stated), the TGI [9] is reported as greater than 10 µM, the TGI [1] is reported as greater than 10 µM and the TGI [2] is reported as greater than 10 µM. For the same compound, the TGI [10] was greater than 10 µM, the TGI [3] was 0.417 µM and the TGI [4] was greater than 10 µM. The TGI [6] was greater than 10 µM, the TGI [7] was greater than 10 µM and the TGI [8] was greater than 10 µM.
`Cn1c(=Nc2ccccc2[N+](=O)[O-])sc2ccccc21` gave a TGI [9] greater than 100 µM, a TGI [1] greater than 100 µM and a TGI [2] greater than 100 µM. For the same compound, the TGI [10] was greater than 100 µM, the TGI [3] was greater than 100 µM and the TGI [4] was greater than 100 µM. The TGI [5] was greater than 100 µM, the TGI [7] was 15.5 µM and the TGI [8] was greater than 100 µM.
`Nc1ccc(Oc2ccc(C34CC5CC(C3)CC(c3ccc(Oc6ccc(N)c(O)c6)cc3)(C5)C4)cc2)cc1O` showed a TGI [9] of 3.5 µM, a TGI [1] greater than 21.2 µM and a TGI [2] of 4.72 µM. For the same compound, the TGI [10] was 3.63 µM, the TGI [4] was 9.93 µM and the TGI [5] was 6.21 µM. It also gave a TGI [6] of 8.95 µM, a TGI [7] of 3.62 µM and a TGI [8] of 4.86 µM.
`O=c1oc2c(Cl)cc(Cl)cc2cc1-c1cn2c(n1)sc1ccccc12` showed a TGI [9] greater than 100 µM, a TGI [1] greater than 100 µM and a TGI [2] greater than 100 µM. It also gave a TGI [10] greater than 100 µM, a TGI [3] greater than 100 µM and a TGI [5] greater than 100 µM. For the same compound, the TGI [6] was greater than 100 µM, the TGI [7] was greater than 100 µM and the TGI [8] was greater than 100 µM.
`CN(C)CCNC(=O)c1cccc2c(NC(CCCN=C(N)N)C(=O)O)c3ccccc3nc12` (configuration not stated) was tested, and the TGI [9] was greater than 100 µM, the TGI [1] was greater than 100 µM and the TGI [10] was 30.1 µM. The TGI [3] was 41.6 µM, the TGI [4] was 22.8 µM and the TGI [5] was 89.2 µM. The TGI [6] was greater than 100 µM, the TGI [7] was 61.5 µM and the TGI [8] was 30.5 µM.
`O=[N+]([O-])c1cc(-c2ccc([As](=O)(O)O)cc2)ccc1[As](=O)(O)O` showed a TGI [9] greater than 100 µM, a TGI [1] greater than 100 µM and a TGI [2] greater than 100 µM. It also gave a TGI [10] greater than 100 µM, a TGI [3] greater than 100 µM and a TGI [4] greater than 100 µM. It also gave a TGI [5] greater than 100 µM, a TGI [7] greater than 100 µM and a TGI [8] greater than 100 µM.
With `O=C(NC1CCCCC1)N1CCNC1=S` the TGI [9] was greater than 100 µM, the TGI [1] was greater than 100 µM and the TGI [2] was greater than 100 µM. The TGI [10] was greater than 100 µM, the TGI [3] was greater than 100 µM and the TGI [4] was greater than 100 µM. The TGI [5] was greater than 100 µM, the TGI [7] was greater than 100 µM and the TGI [8] was greater than 100 µM.
`CNC(=O)/C(C#N)=C(\N)N1CCCC1` showed a TGI [9] greater than 100 µM, a TGI [1] greater than 100 µM and a TGI [10] greater than 100 µM. The TGI [3] was greater than 100 µM, the TGI [4] was greater than 100 µM and the TGI [5] was greater than 100 µM. It also gave a TGI [7] greater than 100 µM and a TGI [8] greater than 100 µM.
Compound `Cc1nc2cc3[nH]c4ccccc4c(=O)c3cc2s1` has a TGI [9] greater than 100 µM, a TGI [1] greater than 100 µM and a TGI [2] greater than 100 µM. The TGI [10] was greater than 100 µM, the TGI [4] was greater than 100 µM and the TGI [7] was greater than 100 µM. For the same compound, the TGI [8] was greater than 100 µM.
